Measured values published in US9322066B2, “Predictors for cancer treatment” (priority 2011, dated 2016).

Tested on: relapsed or refractory, rituximab-naive or -sensitive follicular B-cell NHL
Test: Treatment free interval, Vc-R vs rituximab study, by biomarker
Format: in vivo, human
Design: Treatment Free Interval, Median: unit not given here
Settings: for Treatment Free Interval, Evt/N / Treatment Free Interval, Median: IRC Review
From the text: Non-Hodgkin lymphoma (NHL) encompasses several unique malignant lymphoid disease entities that vary in clinical behavior, morphologic appearance, immunologic, and molecular phenotype. […] A randomized, open-label, active-controlled, multicenter, multinational, prospective study to compare the efficacy and safety of the combination of bortezomib and rituximab (Vc-R) to single-agent rituximab in subjects who have relapsed or refractory, rituximab-naive or -sensitive follicular B-cell NHL was performed.
Subjects were centrally randomized to Treatment Groups A (Vc-R) or B (rituximab) in a 1:1 ratio taking into account the following stratification factors: • Follicular Lymphoma International Prognostic Index (FLIPI) score (low [0 or 1 factor], intermediate [2 factors], high [≧3 factors]); • Prior rituximab therapy (yes, no); • Time since last dose of anti-lymphoma therapy (≦1 year, >1 year); • Region (United States/Canada, European Union, Rest of World).
The following clinical endpoints were included in the analysis within each treatment group and an overall comparison was made with the biomarker-related endpoints: Progression-free survival, defined as the interval between the date of randomization and the date of progressive disease (PD) or death, whichever is first reported in the ITT population; overall survival; overall response rate (complete response [CR]+CR unconfirmed [CRu]+partial response [PR]); overall CR rate (CR+CRu); duration of response; time to next anti-lymphoma therapy; and treatment free interval.

[1] = 20S % NUCLEAR STAINING 0-20, Female
[2] = 20S % NUCLEAR STAINING 60-70, Male
[3] = 20S % NUCLEAR STAINING 60-70, Prior Rituximab Therapy
[4] = 20S INTENSITY CYTOPLASMIC SIGNAL: ≧3+, European Union
[5] = CD68 OVERALL POSITIVE: 0-25, 2 Prior Lines of Therapy
[6] = CD68 OVERALL POSITIVE: 0-25, >1 year since last anti-lymphoma treatment
[7] = CD68 OVERALL POSITIVE: 0-25, Ann Arbor Stage III
[8] = CD68 OVERALL POSITIVE: 0-25, Ann Arbor Stage IV
[9] = CD68 OVERALL POSITIVE: 0-25, European Union
[10] = CD68 OVERALL POSITIVE: 0-25, Female
[11] = CD68 OVERALL POSITIVE: 0-25, Intermediate FLIPI Score
[12] = CD68 OVERALL POSITIVE: 0-25, Low FLIPI Score
[13] = CD68 OVERALL POSITIVE: 0-25, No High Tumor Burden
[14] = CD68 OVERALL POSITIVE: 0-25, No Prior Rituximab Therapy
[15] = CD68 OVERALL POSITIVE: 0-25, No Subgroup
[16] = CD68 OVERALL POSITIVE: 0-25, Prior Rituximab Therapy
[17] = CD68 OVERALL POSITIVE: 0-25, White
[18] = CD68 OVERALL POSITIVE: 0-25, ≦65 years old
[19] = CD68 OVERALL POSITIVE: >75, Male
[20] = CD68 POSITIVE FOLLICULAR: 0-25, >1 year since last anti-lymphoma treatment
[21] = CD68 POSITIVE FOLLICULAR: 0-25, Ann Arbor Stage III
[22] = CD68 POSITIVE FOLLICULAR: 0-25, Asian
[23] = CD68 POSITIVE FOLLICULAR: 0-25, Female
[24] = CD68 POSITIVE FOLLICULAR: 0-25, No High Tumor Burden
[25] = CD68 POSITIVE FOLLICULAR: 0-25, No Prior Rituximab Therapy
[26] = CD68 POSITIVE FOLLICULAR: 0-25, No Subgroup
[27] = CD68 POSITIVE FOLLICULAR: 0-25, White
[28] = CD68 POSITIVE FOLLICULAR: 0-25, ≦65 years old
[29] = CD68 POSITIVE PERIFOLLICULAR: 0-25, 2 Prior Lines of Therapy
[30] = CD68 POSITIVE PERIFOLLICULAR: 0-25, >1 year since last anti-lymphoma treatment
[31] = CD68 POSITIVE PERIFOLLICULAR: 0-25, Ann Arbor Stage IV
[32] = CD68 POSITIVE PERIFOLLICULAR: 0-25, Female
[33] = CD68 POSITIVE PERIFOLLICULAR: 0-25, Intermediate FLIPI Score
[34] = CD68 POSITIVE PERIFOLLICULAR: 0-25, No High Tumor Burden
[35] = CD68 POSITIVE PERIFOLLICULAR: 0-25, No Prior Rituximab Therapy
[36] = CD68 POSITIVE PERIFOLLICULAR: 0-25, No Subgroup
[37] = CD68 POSITIVE PERIFOLLICULAR: 0-25, White
[38] = CD68 POSITIVE PERIFOLLICULAR: 0-25, ≦65 years old
[39] = CD68 POSITIVE PERIFOLLICULAR: 26-50, Other
[40] = CD68 POSITIVE PERIFOLLICULAR: >75, 1 Prior Line of Therapy
[41] = CD68 POSITIVE PERIFOLLICULAR: >75, European Union
[42] = CD68 POSITIVE PERIFOLLICULAR: >75, ≦65 years old
[43] = P27 % NUCLEI POSITIVE: 0-20, 1 Prior Line of Therapy
[44] = P27 % NUCLEI POSITIVE: 0-20, Ann Arbor Stage III
[45] = P27 % NUCLEI POSITIVE: 0-20, ≦65 years old
[46] = P27 % NUCLEI POSITIVE: 30-50, High Tumor Burden
[47] = P27 SIGNAL INTENSITY: ≦1+, High Tumor Burden
[48] = P27 SIGNAL INTENSITY: ≧2+, 5 Prior Lines of Therapy

With rituximab the “Treatment Free Interval, Evt/N” value [1] was 35/61, the “Treatment Free Interval, Median” value [1] was 427 and the “Treatment Free Interval, Evt/N” value [2] was 14/16. For the same substance, the “Treatment Free Interval, Median” value [2] was 110, the “Treatment Free Interval, Evt/N” value [3] was 17/21 and the “Treatment Free Interval, Median” value [3] was 190. For the same substance, the “Treatment Free Interval, Evt/N” value [4] was 34/52, the “Treatment Free Interval, Median” value [4] was 393 and the “duration of treatment free interval” value (Biomarker positive (PSMB1 P11A heterozygote and CD68 Low)) was 10.1 mo. The “Treatment Free Interval, Evt/N” value [5] was 6/8, the “Treatment Free Interval, Median” value [5] was 80 and the “Treatment Free Interval, Evt/N” value [6] was 17/26. The “Treatment Free Interval, Median” value [6] was 269, the “Treatment Free Interval, Evt/N” value [7] was 12/16 and the “Treatment Free Interval, Median” value [7] was 135. For the same substance, the “Treatment Free Interval, Evt/N” value [8] was 15/22, the “Treatment Free Interval, Median” value [8] was 293 and the “Treatment Free Interval, Evt/N” value [9] was 14/22. For the same substance, the “Treatment Free Interval, Median” value [9] was 234, the “Treatment Free Interval, Evt/N” value [10] was 16/26 and the “Treatment Free Interval, Median” value [10] was 293. The “Treatment Free Interval, Evt/N” value [11] was 7/11, the “Treatment Free Interval, Median” value [11] was 343 and the “Treatment Free Interval, Evt/N” value [12] was 8/10. The “Treatment Free Interval, Median” value [12] was 281, the “Treatment Free Interval, Evt/N” value [13] was 8/14 and the “Treatment Free Interval, Median” value [13] was 411. For the same substance, the “Treatment Free Interval, Evt/N” value [14] was 12/19, the “Treatment Free Interval, Median” value [14] was 393 and the “Treatment Free Interval, Evt/N” value [15] was 30/44. The “Treatment Free Interval, Median” value [15] was 269, the “Treatment Free Interval, Evt/N” value [16] was 18/25 and the “Treatment Free Interval, Median” value [16] was 115. For the same substance, the “Treatment Free Interval, Evt/N” value [17] was 24/35, the “Treatment Free Interval, Median” value [17] was 269 and the “Treatment Free Interval, Evt/N” value [18] was 24/34. The “Treatment Free Interval, Median” value [18] was 234, the “Treatment Free Interval, Evt/N” value (CD68 OVERALL POSITIVE: 51-75, No High Tumor Burden) was 10/25 and the “Treatment Free Interval, Evt/N” value [19] was 8/9. For the same substance, the “Treatment Free Interval, Median” value [19] was 272, the “Treatment Free Interval, Evt/N” value [20] was 22/34 and the “Treatment Free Interval, Median” value [20] was 409. The “Treatment Free Interval, Evt/N” value [21] was 19/24, the “Treatment Free Interval, Median” value [21] was 190 and the “Treatment Free Interval, Evt/N” value [22] was 5/6. For the same substance, the “Treatment Free Interval, Median” value [22] was 148, the “Treatment Free Interval, Evt/N” value [23] was 23/37 and the “Treatment Free Interval, Median” value [23] was 307. The “Treatment Free Interval, Evt/N” value [24] was 14/22, the “Treatment Free Interval, Median” value [24] was 432 and the “Treatment Free Interval, Evt/N” value [25] was 23/36. The “Treatment Free Interval, Median” value [25] was 344, the “Treatment Free Interval, Evt/N” value [26] was 40/60 and the “Treatment Free Interval, Median” value [26] was 307. For the same substance, the “Treatment Free Interval, Evt/N” value [27] was 32/48, the “Treatment Free Interval, Median” value [27] was 307 and the “Treatment Free Interval, Evt/N” value [28] was 33/46. For the same substance, the “Treatment Free Interval, Median” value [28] was 190, the “Treatment Free Interval, Evt/N” value [29] was 6/8 and the “Treatment Free Interval, Median” value [29] was 64. The “Treatment Free Interval, Evt/N” value [30] was 15/24, the “Treatment Free Interval, Median” value [30] was 393 and the “Treatment Free Interval, Evt/N” value [31] was 11/15. For the same substance, the “Treatment Free Interval, Median” value [31] was 234, the “Treatment Free Interval, Evt/N” value [32] was 19/28 and the “Treatment Free Interval, Median” value [32] was 234. The “Treatment Free Interval, Evt/N” value [33] was 7/13, the “Treatment Free Interval, Median” value [33] was 361 and the “Treatment Free Interval, Evt/N” value [34] was 8/13. For the same substance, the “Treatment Free Interval, Median” value [34] was 361, the “Treatment Free Interval, Evt/N” value [35] was 12/18 and the “Treatment Free Interval, Median” value [35] was 393. The “Treatment Free Interval, Evt/N” value [36] was 26/39, the “Treatment Free Interval, Median” value [36] was 234 and the “Treatment Free Interval, Evt/N” value [37] was 19/27. The “Treatment Free Interval, Median” value [37] was 361, the “Treatment Free Interval, Evt/N” value [38] was 20/31 and the “Treatment Free Interval, Median” value [38] was 143. For the same substance, the “Treatment Free Interval, Evt/N” value [39] was 4/4, the “Treatment Free Interval, Median” value [39] was 217 and the “Treatment Free Interval, Evt/N” value [40] was 15/18. For the same substance, the “Treatment Free Interval, Median” value [40] was 297, the “Treatment Free Interval, Evt/N” value [41] was 13/17 and the “Treatment Free Interval, Median” value [41] was 533. For the same substance, the “Treatment Free Interval, Evt/N” value [42] was 19/23, the “Treatment Free Interval, Median” value [42] was 297 and the “Treatment Free Interval, Evt/N” value [43] was 19/26. For the same substance, the “Treatment Free Interval, Median” value [43] was 293, the “Treatment Free Interval, Evt/N” value [44] was 14/16 and the “Treatment Free Interval, Median” value [44] was 275. For the same substance, the “Treatment Free Interval, Evt/N” value [45] was 26/34, the “Treatment Free Interval, Median” value [45] was 187 and the “Treatment Free Interval, Evt/N” value [46] was 17/22. The “Treatment Free Interval, Median” value [46] was 280, the “Treatment Free Interval, Evt/N” value (P27 % NUCLEI POSITIVE: 60-70, 3 Prior Lines of Therapy) was 1/6 and the “Treatment Free Interval, Evt/N” value [47] was 16/18. The “Treatment Free Interval, Median” value [47] was 122, the “Treatment Free Interval, Evt/N” value [48] was 5/6 and the “Treatment Free Interval, Median” value [48] was 88. The “Treatment Free Interval, Evt/N” value (P27 SIGNAL INTENSITY: ≧2+, Prior Rituximab Therapy) was 60/88.
